Assay results from US20140128352A1, “COMPOUNDS AND METHODS FOR MODULATING MITOCHONDRIAL METABOLISM AND REACTIVE OXYGEN SPECIES PRODUCTION” (Buck Institute for Research on Aging, priority 2012, published 2014).
Like-named read-outs stand apart in the source and are kept apart here.

Tests used:
[1] = target: T1, flavin binding site of complex I (IF) (Rattus norvegicus, UniProt Q5XIH3); assay: High-throughput screen: ROS production from flavin binding site of complex I (IF); type: biochemical; settings: percent change in ROS from DMSO controls; for inhibition at 2.5 µM: Table 7, read-out: IF
T1 construct: freshly isolated muscle mitochondria were assayed; from tissue; host or cells: rat skeletal muscle mitochondria (Wistar, Harlan Laboratories)
T1 sequence (Q5XIH3 21-464 limits assumed, one chain of several): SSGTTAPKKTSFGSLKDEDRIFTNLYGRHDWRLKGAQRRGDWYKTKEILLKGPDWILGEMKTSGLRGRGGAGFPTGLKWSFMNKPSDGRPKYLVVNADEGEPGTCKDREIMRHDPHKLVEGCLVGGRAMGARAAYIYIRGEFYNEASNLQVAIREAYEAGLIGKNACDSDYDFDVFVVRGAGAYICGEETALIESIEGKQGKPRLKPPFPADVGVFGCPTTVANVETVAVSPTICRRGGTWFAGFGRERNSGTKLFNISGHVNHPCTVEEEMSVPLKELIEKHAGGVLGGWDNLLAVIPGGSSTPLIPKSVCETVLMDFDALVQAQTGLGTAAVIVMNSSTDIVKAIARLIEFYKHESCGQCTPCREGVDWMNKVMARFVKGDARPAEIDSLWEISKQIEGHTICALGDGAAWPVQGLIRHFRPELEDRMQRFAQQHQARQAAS

[2] = tested on: mitochondrial membrane potential (ΔΨm); assay: Membrane potential (ΔΨm) counterscreen with TMRM; settings: malate, nigericin
Procedure: Skeletal muscle mitochondria were isolated from 5-8 week old female Wistar rats (Harlan Laboratories). Minced muscle was homogenized in buffer containing bacterial protease Type VIII prior to differential centrifugation to separate mitochondria from other tissue components. Unless otherwise stated, freshly isolated muscle mitochondria were assayed in buffer containing 120 mM KCl, 5 mM HEPES, 1 mM EGTA, 0.3% (w/v) bovine serum albumin. Where indicated, CaCl2 was added to yield a final free concentration of 250 nM calcium at pH 7.0 at 37° C. Total and free calcium concentrations were calculated using the Extended MaxChelator program at http://maxchelator.stanford.edu.
Compounds were manually transferred from the Master Compound Plate to two black 96-well assay plates. A bulk solution was prepared containing the following components (final concentrations) and manually dispensed into the two ΔΨm assay plates: the potentiometric dye TMRM (5 μM), mitochondria (0.2 mg/mL), glutamate (5 mM), malate (5 mM), and nigericin (80 ng/mL).

[3] = tested on: ubiquinone binding site of complex I (IQ); assay: High-throughput screen: ROS production from ubiquinone binding site of complex I (IQ), isolated skeletal muscle mitochondria; type: biochemical, rat; settings: percent change in ROS from DMSO controls
Procedure: (§1) Skeletal muscle mitochondria were isolated from 5-8 week old female Wistar rats (Harlan Laboratories). Minced muscle was homogenized in buffer containing bacterial protease Type VIII prior to differential centrifugation to separate mitochondria from other tissue components. Unless otherwise stated, freshly isolated muscle mitochondria were assayed in buffer containing 120 mM KCl, 5 mM HEPES, 1 mM EGTA, 0.3% (w/v) bovine serum albumin. Where indicated, CaCl2 was added to yield a final free concentration of 250 nM calcium at pH 7.0 at 37° C.
(§2) Compounds (10 mM in DMSO) were randomly selected from a library of 24,000 compounds obtained from ChemBridge and curated by the lab of Robert Hughes at the Buck Institute. Master screening plates were prepared using a Biomek FX liquid handling workstation (Beckman) to transfer 1 μL of each compound into individual wells on 96-well storage plates (80 compounds per plate). Master plates were sealed with foil and stored at −80° C. Just prior to use, plates were brought to room temperature and diluted 300-fold with standard buffer (13.3X=33.3 μM). To monitor the performance of each assay throughout screening and to provide intra-plate normalization reference points, DMSO negative controls and known mitochondrial inhibitor positive controls were included on each Master compound plate.
(§3) Total amounts of superoxide and H2O2 production were determined fluorometrically as H2O2, without distinguishing between them, in the presence of exogenous superoxide dismutase (25 units/mL final), horseradish peroxidase (1 unit/mL final), and Amplex UltraRed (25 μM final) as described (Affourtit, C. et al. (2012) Measurement of proton leak and electron leak in isolated mitochondria. Methods Mol. Biol. 810: 165-82). Just prior to use, a bulk 3.3X solution was made in standard buffer and distributed into a 2 mL deep well 96-well transfer plate.
To assess the effects of a compound on ROS production from the ubiquinone binding site of complex I (IQ), Start Solution containing 5 mM succinate was distributed into standard 96-well transfer plates. A Biomek FX workstation was programmed to dispense solutions into black 96-well assay plates. Solutions were dispensed to all assay plates in the following order: ROS Detection solution described in Example 3, Mitochondria solution described in Example 1 to a final concentration of 0.1 mg/ml, and Compound dilutions described in Example 2. Duplicate assay plates were made and each was initiated by the addition of 3.3X Start solution containing 5 mM succinate. Plates were incubated in the dark at room temperature for 30-40 minutes before acquiring endpoint fluorescence using a Victor 3V plate reader (Perkin Elmer) equipped with 550/590 nm excitation/emission filters.
The fluorescence values in each well were scaled as the percent change from the intra-plate DMSO controls with the appropriate inhibitor positive controls defined as −100%. Following initial scaling, intra-plate normalized values were subjected to Tukey's two-way median polish to remove row and column dependent positional effects (Malo et al, 2006).

[4] = target: T2, outer ubiquinone binding site of complex III (IIIQO) (Rattus norvegicus, UniProt P00159+P20788); assay: High-throughput screen: ROS production from outer ubiquinone binding site of complex III (IIIQO); type: biochemical; settings: for IIIQO: Table 8
T2 construct: freshly isolated muscle mitochondria were assayed; from tissue; host or cells: rat skeletal muscle mitochondria (Wistar, Harlan Laboratories)
Procedure: as §1, §2, §3
To assess the effects of a compound on ROS production from the outer ubiquinone binding site of complex III (IIIQO), Start Solution containing 5 mM succinate, 4 μM rotenone and 2.5 μM antimycin A was distributed into standard 96-well transfer plates. A Biomek FX workstation was programmed to dispense solutions into black 96-well assay plates. Solutions were dispensed to all assay plates in the following order: ROS Detection solution described in Example 3, Mitochondria solution described in Example 1 to a final concentration of 0.1 mg/ml, and Compound dilutions described in Example 2. Duplicate assay plates were made and each was initiated by the addition of 3.3X Start solution containing 5 mM succinate, 4 μM rotenone and 2.5 μM antimycin A. Plates were incubated in the dark at room temperature for 30-40 minutes before acquiring endpoint fluorescence using a Victor 3V plate reader (Perkin Elmer) equipped with 550/590 nm excitation/emission filters.
(§4) The fluorescence values in each well were scaled as the percent change from the intra-plate DMSO controls with the appropriate inhibitor positive controls defined as −100%. Following initial scaling, intra-plate normalized values were subjected to Tukey's two-way median polish to remove row and column dependent positional effects (Malo et al., 2006).

[5] = target: T3, glycerol-3-phosphate dehydrogenase (GPDH) (Rattus norvegicus, UniProt P35571); assay: High-throughput screen: ROS production from glycerol-3-phosphate dehydrogenase (GPDH); type: biochemical; parameters: inhibition: dose or concentration left out as unconfirmed; settings: for inhibition: Table 7; for inhibition / GPDH: percent change in ROS from DMSO controls; for inhibition at 2.5 µM: Table 6, 25 mM glycerol phosphate, rotenone, antimycin A, malonate, myxothiazol, compounds 2.5 μM, scaled to IQ positive controls, read-out: % Reduction in ROS Production (GPDH)
T3 construct: The activity of GPDH in intact mitochondria (0.3 mg/mL) was measured; from tissue; host or cells: rat skeletal muscle mitochondria (Wistar, Harlan Laboratories)
T3 sequence (P35571 43-727): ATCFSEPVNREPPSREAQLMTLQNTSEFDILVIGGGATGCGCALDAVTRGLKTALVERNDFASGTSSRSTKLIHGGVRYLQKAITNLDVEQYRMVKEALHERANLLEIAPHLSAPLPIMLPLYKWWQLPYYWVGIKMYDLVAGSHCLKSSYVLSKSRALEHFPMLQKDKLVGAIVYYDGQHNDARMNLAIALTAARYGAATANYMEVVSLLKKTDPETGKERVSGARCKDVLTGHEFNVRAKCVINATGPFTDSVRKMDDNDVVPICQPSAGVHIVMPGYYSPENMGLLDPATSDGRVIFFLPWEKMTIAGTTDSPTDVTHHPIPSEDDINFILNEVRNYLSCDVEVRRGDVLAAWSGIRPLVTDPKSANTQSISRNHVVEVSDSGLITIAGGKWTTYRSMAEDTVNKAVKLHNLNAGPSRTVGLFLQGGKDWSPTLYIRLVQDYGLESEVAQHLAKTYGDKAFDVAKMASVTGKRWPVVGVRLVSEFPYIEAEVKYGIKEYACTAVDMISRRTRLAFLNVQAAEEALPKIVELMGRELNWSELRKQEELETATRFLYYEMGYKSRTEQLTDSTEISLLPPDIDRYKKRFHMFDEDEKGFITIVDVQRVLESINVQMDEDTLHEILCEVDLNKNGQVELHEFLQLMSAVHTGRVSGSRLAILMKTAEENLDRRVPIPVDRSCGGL

[6] = target: T4, succinate dehydrogenase/complex II (SDH) (Rattus norvegicus, UniProt P21913+Q641Z9+Q6PCT8+Q920L2); assay: High-throughput screen: ROS production from succinate dehydrogenase/complex II (SDH); type: biochemical; settings: for inhibition at 2.5 µM: Table 7; for inhibition at 2.5 µM / SDH: percent change in ROS from DMSO controls
T4 construct: freshly isolated muscle mitochondria were assayed; from tissue; host or cells: rat skeletal muscle mitochondria (Wistar, Harlan Laboratories)
T4 sequence (Q920L2 35-656): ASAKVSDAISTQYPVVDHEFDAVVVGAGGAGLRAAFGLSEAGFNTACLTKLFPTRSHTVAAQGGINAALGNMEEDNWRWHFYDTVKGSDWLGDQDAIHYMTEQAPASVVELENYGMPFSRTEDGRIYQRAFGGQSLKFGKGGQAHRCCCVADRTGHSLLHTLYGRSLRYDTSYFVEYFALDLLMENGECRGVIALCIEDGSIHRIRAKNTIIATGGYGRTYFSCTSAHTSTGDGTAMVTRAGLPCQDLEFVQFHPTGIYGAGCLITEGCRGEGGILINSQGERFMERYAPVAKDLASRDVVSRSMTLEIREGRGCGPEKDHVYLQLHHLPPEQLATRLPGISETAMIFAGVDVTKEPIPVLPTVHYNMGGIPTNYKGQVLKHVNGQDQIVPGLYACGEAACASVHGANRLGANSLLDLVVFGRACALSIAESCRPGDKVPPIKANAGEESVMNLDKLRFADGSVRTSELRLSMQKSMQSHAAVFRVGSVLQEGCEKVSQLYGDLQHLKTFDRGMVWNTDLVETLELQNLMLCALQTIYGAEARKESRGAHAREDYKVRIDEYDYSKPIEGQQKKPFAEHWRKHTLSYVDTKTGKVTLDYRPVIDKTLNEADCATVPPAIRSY
T4 sequence (P21913 31-282): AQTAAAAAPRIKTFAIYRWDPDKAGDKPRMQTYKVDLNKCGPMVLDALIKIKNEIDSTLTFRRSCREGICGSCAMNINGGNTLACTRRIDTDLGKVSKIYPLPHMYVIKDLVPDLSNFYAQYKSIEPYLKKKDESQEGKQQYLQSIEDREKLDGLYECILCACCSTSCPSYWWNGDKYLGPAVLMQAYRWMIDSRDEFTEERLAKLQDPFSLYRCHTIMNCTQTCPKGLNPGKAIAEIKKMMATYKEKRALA
T4 sequence (Q641Z9 30-169 limits assumed): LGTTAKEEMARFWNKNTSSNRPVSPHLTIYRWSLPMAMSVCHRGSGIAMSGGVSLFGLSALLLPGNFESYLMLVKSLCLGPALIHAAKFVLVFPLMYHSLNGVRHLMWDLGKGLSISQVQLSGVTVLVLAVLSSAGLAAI
T4 sequence (Q6PCT8 57-159): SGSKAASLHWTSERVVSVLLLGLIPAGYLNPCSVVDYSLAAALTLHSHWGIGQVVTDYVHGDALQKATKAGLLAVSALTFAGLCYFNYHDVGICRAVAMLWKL
Procedure: as §1
Just prior to use, plates were brought to room temperature and diluted 300-fold with standard buffer (13.3X=33.3 μM). To monitor the performance of each assay throughout screening and to provide intra-plate normalization reference points, DMSO negative controls and known mitochondrial inhibitor positive controls were included on each Master compound plate.
as §3
To assess the effects of a compound on ROS production from succinate dehydrogenase/complex II (SDH), Start Solution containing 15 μM palmitoyl carnitine, 2.5 μM antimycin A and 2 μM myxothiazol was distributed into standard 96-well transfer plates. A Biomek FX workstation was programmed to dispense solutions into black 96-well assay plates. Solutions were dispensed to all assay plates in the following order: ROS Detection solution described in Example 3, Mitochondria solution described in Example 1 to a final concentration of 0.3 mg/ml, and Compound dilutions described in Example 2. Duplicate assay plates were made and each was initiated by the addition of 3.3X Start solution containing 15 μM palmitoyl carnitine, 2.5 μM antimycin A and 2 μM myxothiazol. Plates were incubated in the dark at room temperature for 30-40 minutes before acquiring endpoint fluorescence using a Victor 3V plate reader (Perkin Elmer) equipped with 550/590 nm excitation/emission filters.
as §4

[7] = Table 7, percent change in ROS from DMSO controls, read-out: IIIQO
[8] = percent change in ROS from DMSO controls
[9] = Table 9, percent change in ROS from DMSO controls, read-out: IIIQo
[10] = Table 4, 5 mM succinate, 4 μM rotenone, 2.5 μM antimycin A, compounds 2.5 μM, percent change from DMSO, read-out: % Reduction in ROS production (IIIQO)

SMILES | inhibition at 2.5 µM [1] [%] | IF ([1]; Table 8) | IF ([1]; Table 9) | ΔΨm ([2]; Table 8, glutamate) | ΔΨm ([2]; Table 9, glutamate) | IQ ([3]; Table 7) | IQ ([3]; Table 8) | IQ ([3]; Table 9) | inhibition at 2.5 µM [4, 7] [%] | IIIQO [4, 8] | inhibition at 2.5 µM [4, 9] [%] | inhibition [5] [%] | GPDH ([5]; Table 8) | GPDH ([5]; Table 9) | inhibition at 2.5 µM [4, 10] [%] | inhibition at 2.5 µM [6] [%] | inhibition at 2.5 µM [5] [%] | % Reduction in ROS Production (SDH) ([6]; Table 5, 15 μM palmitoyl carnitine, 2.5 μM antimycin A, 2 μM myxothiazol, compounds 2.5 μM, percent change from DMSO) [%] | SDH ([6]; Table 8) | SDH ([6]; Table 9)
COc1cccc(CCNC2C3CC4CC(C3)CC2C4)c1 (stereo not drawn) [Compound 26] | 19.6 | −19.6 | −19.6 | −0.7 | −0.7 | −0.8 | −0.8 | −0.8 | 1.8 | −1.8 | 1.8 | 3.3 | −3.3 | −3.3 | – | – | – | – | – | –
CCCCN(Cc1ccccc1)Cc1cc(Cl)cc(Cl)c1O [Compound 38] | 1.8 | −1.8 | −1.8 | 0.3 | 0.3 | −3.9 | −3.9 | −3.9 | 31.3 | −31.3 | 31.3 | -3.7 | 3.7 | 3.7 | 31.3 | – | – | – | – | –
Fc1ccc(N2CCN(CC(c3ccccc3)c3ccccc3)CC2)cc1 [Compound 39] | 0.9 | −0.9 | −0.9 | 0.5 | 0.5 | 2.7 | 2.7 | 2.7 | 26.8 | −26.8 | 26.8 | 4.7 | −4.7 | −4.7 | 26.8 | – | – | – | – | –
COC(=O)c1ccc(CN(CCc2ccccc2)Cc2ccccc2)cc1 [Compound 43] | 4.4 | −4.4 | −4.4 | 0.6 | 0.6 | −0.5 | −0.5 | −0.5 | 23.2 | −23.2 | 23.2 | -3.4 | 3.4 | 3.4 | 23.2 | – | – | – | – | –
CCCCN(Cc1ccccc1)Cc1cccc(Oc2ccc(Cl)cc2)c1 [Compound 44] | -3.1 | 3.1 | 3.1 | 1.0 | 1.0 | 0.4 | 0.4 | 0.4 | 23.1 | −23.1 | 23.1 | 3.4 | −3.4 | −3.4 | 23.1 | – | – | – | – | –
C=C(C)CN(CC)Cc1cc([N+](=O)[O-])ccc1Cl [Compound 45] | -0.5 | 0.5 | 0.5 | 0.3 | 0.3 | −0.2 | −0.2 | −0.2 | 20.2 | −20.2 | 20.2 | -3.1 | 3.1 | 3.1 | 20.2 | – | – | – | – | –
COC(=O)CCC(=O)Nc1ccc(C)cc1 [Compound 53] | -1.3 | – | – | – | – | 0.1 | – | – | -0.8 | – | – | -0.9 | – | – | – | 0.3 | 0 | – | – | –
CCCCCCNC(=O)CCC(=O)O [Compound 54] | -8 | – | – | – | – | 2.3 | – | – | -2.5 | – | – | -3.3 | – | – | – | -4.4 | -0.9 | – | – | –
c1ccc2[nH]c(-c3ccc(-c4nc5ccccc5[nH]4)cc3)nc2c1 [Compound 55] | 1.9 | – | – | – | – | −3.9 | – | – | -3.3 | – | – | -1.5 | – | – | – | -1.5 | -3.3 | – | – | –
C=C(C)C(=O)Nc1ccc(-c2nc3ccccc3[nH]2)cc1 [Compound 56] | -0.3 | – | – | – | – | −0.3 | – | – | -1.4 | – | – | 0.8 | – | – | – | 2.9 | -1.5 | – | – | –
O=C(O)CCC(=O)Nc1ccc(-c2nc3cc(NC(=O)CCC(=O)O)ccc3[nH]2)cc1 [Compound 57] | -1.7 | – | – | – | – | 3.1 | – | – | -0.4 | – | – | -0.2 | – | – | – | -4.2 | 0.8 | – | – | –
O=C(O)CCC(=O)Nc1ccc(Cl)cc1 [Compound 58] | -0.1 | – | – | – | – | −6.4 | – | – | -0.8 | – | – | 1.2 | – | – | – | -1.5 | -0.2 | – | – | –
CC(=O)Nc1ccc(-c2nc3ccccc3[nH]2)cc1 [Compound 59] | 3 | – | – | – | – | −12.3 | – | – | 1.3 | – | – | 4.4 | – | – | – | 5.1 | 1.2 | – | – | –
O=C(O)CCC(=O)Nc1cccc(-c2nc3ccccc3[nH]2)c1 [Compound 60] | 4.2 | – | – | – | – | −43.9 | – | – | -1.1 | – | – | 48.3 | – | – | – | 3.4 | 4.4 | – | – | –
O=C(Nc1ccc(-c2nc3ccccc3[nH]2)cc1)c1ccco1 [Compound 63] | -0.9 | – | – | – | – | −6.9 | – | – | -1.8 | – | – | -8.2 | – | – | – | -3.5 | 1.7 | – | – | –
CCOc1ccc(C(=O)Nc2ccc(-c3nc4ccccc4[nH]3)cc2)cc1 [Compound 64] | 3.8 | – | – | – | – | −15.3 | – | – | 1 | – | – | 13 | – | – | – | -9.8 | -8.2 | – | – | –
O=C(O)CCC(=O)Nc1ccc(-c2nc3ccccc3s2)cc1 [Compound 65] | 1.3 | – | – | – | – | −11.0 | – | – | 1 | – | – | 1.9 | – | – | – | -0.2 | 13 | – | – | –
O=C(Nc1ccc(-c2nc3ccccc3[nH]2)cc1)C1CC1 [Compound 66] | 0.2 | – | – | – | – | −2.8 | – | – | 1.2 | – | – | -1.8 | – | – | – | 2.5 | 1.9 | – | – | –
Cc1ccc(NC(=O)CCC(=O)O)cc1 [Compound 67] | 10.1 | – | – | – | – | −11.7 | – | – | 6.5 | – | – | 11.1 | – | – | – | 16.8 | -1.8 | – | – | –
CCCC(=O)Nc1ccc(-c2nc3cc4ccccc4cc3[nH]2)cc1 [Compound 68] | 1.3 | – | – | – | – | −23.0 | – | – | -1.1 | – | – | 32.1 | – | – | – | 3.7 | 11.1 | – | – | –
O=C(O)CCC(=O)Nc1ccc(-c2nc3cc(C(=O)c4ccccc4)ccc3[nH]2)cc1 [Compound 69] | 1.8 | – | – | – | – | −20.1 | – | – | -5.5 | – | – | 26 | – | – | – | 6.3 | 32.1 | – | – | –
Cc1ccc2[nH]c(-c3ccc(NC(=O)CCC(=O)O)cc3)nc2c1 [Compound 70] | 2.2 | – | – | – | – | −0.2 | – | – | 0.4 | – | – | 0 | – | – | – | -4.6 | 26 | – | – | –
CC1CC(C)(C)N(C=O)c2ccccc21 (stereo not drawn) [Compound 71] | -7 | 7.0 | 7.0 | – | – | 1.6 | 1.6 | 1.6 | -6.3 | 6.3 | -6.3 | 0.6 | −0.6 | −0.6 | – | 87.6 | – | −87.6 | −87.6 | −87.6
